In article PMC6959289, “Development of a Biosensor for Detection of Benzoic Acid Derivatives in Saccharomyces cerevisiae” (Frontiers in Bioengineering and Biotechnology, 2020):

Target: T1, sBAD (formerly sHbaR); LexA-HbaR ligand-binding domain-B112 synthetic transcription factor (Rhodopseudomonas palustris, UniProt Q9RFR5)
T1 construct: expressed in S. cerevisiae CEN.PK 2C-1
T1 sequence (Q9RFR5 1-241 limits assumed): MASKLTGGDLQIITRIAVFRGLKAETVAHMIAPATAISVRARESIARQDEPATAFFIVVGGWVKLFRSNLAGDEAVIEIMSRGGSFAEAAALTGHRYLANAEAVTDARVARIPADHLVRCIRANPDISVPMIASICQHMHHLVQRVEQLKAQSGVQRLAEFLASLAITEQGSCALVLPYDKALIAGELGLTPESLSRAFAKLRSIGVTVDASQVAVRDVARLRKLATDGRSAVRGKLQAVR
Experiment: mCitrine reporter activation in yeast, flow cytometry, dose-response
Type: cell-based, Saccharomyces cerevisiae
Text: mCitrine reporter activation in yeast, flow cytometry, dose-response on sBAD (formerly sHbaR); LexA-HbaR ligand-binding domain-B112 synthetic transcription factor

EC50 [µM] | SMILES
749 ± 399 | O=C(O)c1ccc(O)cc1 [HBA, 4-hydroxybenzoic acid]
169 ± 81 | Nc1ccc(C(=O)O)cc1 [pABA, 4-aminobenzoic acid]
47 ± 20 | O=C(O)c1ccccc1 [benzoic acid]
598 ± 283 | CC(=O)Oc1ccccc1C(=O)O [aspirin]
